Target: B-Raf (V600E)-kinase (Homo sapiens, UniProt P15056, V600E)
Assay: Kinase test B-Raf (V600E)
Type: biochemical
Settings: 100% = no inhibition, 0% = total inhibition, read-out: % CTL (residual activity of the enzyme relative to DMSO control); for remaining activity at 2 µM: compound concentration 2 μM; for remaining activity at 1.43 µM: measurement at 1.43 μM (***)
Description: In a dilution series 10 μL of test substance solution are placed in a multiwell plate. The dilution series is selected so that generally a range of concentrations of 2 μM to 0.119 nM or 0.017 nM is covered. If necessary the initial concentration of 2 μM is changed to 50 μM, 10 μM or 0.4 μM or 0.2857 μM and further dilution is carried out accordingly. The final concentration of DMSO is 5%. 10 μL of the B-Raf (V600E)-kinase solution are pipetted in (containing 0.5 ng B-Raf (V600E)-kinase in 20 mM Tris-HCl pH 7.5, 0.1 mM EDTA, 0.1 mM EGTA, 0.286 mM sodium orthovanadate, 10% glycerol, 1 mg/mL bovine serum albumin, 1 mM dithiothreitol) and the mixture is incubated for 1 h at RT under with shaking The kinase reaction is started by the addition of 20 μL ATP solution [final concentration: 250 μM ATP, 30 mM Tris-HCl pH 7.5, 0.02% Brij, 0.2 mM sodium orthovanadate, 10 mM magnesium acetate, 0.1 mM EGTA, phosphatase cocktail (Sigma, # P2850, dilution recommended by the manufacturer), 0.1 mM EGTA] and 10 μL MEK1 solution [containing 50 ng biotinylated MEK1 (prepared from purified MEK1 according to standard procedure, e.g. with EZ-Link Sulpho-NHS-LC-Biotin reagent, Pierce, # 21335) and carried out for 60 min at RT with constant shaking. The reaction is stopped by the addition of 12 μL of a 100 mM EDTA solution and incubation is continued for a further 5 min. 55 μL of the reaction solution are transferred into a streptavidin-coated plate (e.g. Streptawell HighBond, Roche, #11989685001) and shaken gently for 1 h at RT, in order to bind biotinylated MEK1 to the plate. After elimination of the liquid the plate is washed five times with 200 μL of 1×PBS and 100 μL solution of primary antibody plus europium-labelled secondary antibody [Anti Phospho-MEK (Ser217/221), Cell Signaling, # 9121 and Eu-N1 labeled goat-anti-rabbit antibody, Perkin Elmer, #AD0105], the primary antibody is diluted 1:2000 and the secondary antibody is diluted to 0.4-0.5 μg/mL in Delfia Assay Buffer (Perkin Elmer, #1244-111). After 1 h shaking at RT the solution is poured away and washed five times with 200 μL Delfia Wash Buffer (Perkin Elmer, #4010-0010/#1244-114). After the addition of 200 μL Enhancement Solution (Perkin Elmer, #4001-0010/#1244-105) the mixture is shaken for 10 min at RT and then measured in a Wallac Victor using the program “Delfia Time Resolved Fluorescence (Europium)”. IC50 values are obtained from these dosage-activity curves using a software program (GraphPadPrizm).
A value of 100% indicates no inhibition while a value of 0% indicates total inhibition. The % CTL values denote the residual activity of the enzyme after the addition of the inhibitory compound in the solvent DMSO in relation to the enzyme activity in the solvent DMSO without the addition of a compound (control). The values were determined using the B-Raf(V600E)-kinase test described above.

Chain of B-Raf (V600E)-kinase (P15056 whole entry V600E): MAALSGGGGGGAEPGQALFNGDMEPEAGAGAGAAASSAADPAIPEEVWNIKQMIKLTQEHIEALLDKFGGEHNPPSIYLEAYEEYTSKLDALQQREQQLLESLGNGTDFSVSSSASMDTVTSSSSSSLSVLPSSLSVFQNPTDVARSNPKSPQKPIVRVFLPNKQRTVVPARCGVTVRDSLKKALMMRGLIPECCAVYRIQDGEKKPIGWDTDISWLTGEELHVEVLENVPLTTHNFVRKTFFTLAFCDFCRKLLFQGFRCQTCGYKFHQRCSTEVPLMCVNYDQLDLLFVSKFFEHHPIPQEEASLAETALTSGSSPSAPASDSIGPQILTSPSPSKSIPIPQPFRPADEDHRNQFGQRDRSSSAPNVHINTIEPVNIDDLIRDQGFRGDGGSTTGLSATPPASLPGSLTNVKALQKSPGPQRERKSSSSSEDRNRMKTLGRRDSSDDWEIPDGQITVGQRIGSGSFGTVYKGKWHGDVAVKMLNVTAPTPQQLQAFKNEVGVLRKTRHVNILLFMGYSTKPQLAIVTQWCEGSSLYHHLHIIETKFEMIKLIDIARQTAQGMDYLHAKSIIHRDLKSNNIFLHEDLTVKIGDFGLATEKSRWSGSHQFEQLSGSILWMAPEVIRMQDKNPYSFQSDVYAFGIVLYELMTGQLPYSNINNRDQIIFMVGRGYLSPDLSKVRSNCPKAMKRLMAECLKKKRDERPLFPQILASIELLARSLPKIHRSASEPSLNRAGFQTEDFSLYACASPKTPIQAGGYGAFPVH

Row | SMILES | remaining activity at 2 µM | remaining activity at 1.43 µM
1 | COCCCN1CCN(c2cncc(-c3cn(-c4cc(NC(=O)c5cccc(OC(F)(F)F)c5)cnc4C)nn3)c2)CC1 [XII-48] | 2.4% | –
2 | Cc1ncc(NC(=O)c2cc(C(F)(F)F)ccn2)cc1-n1cc(-c2cnn(C)c2C)nn1 [XII-2] | 4.6% | –
3 | Cc1ncc(C(=O)Nc2cc(C(C)(C)C)n[nH]2)cc1-n1cc(-c2cncs2)nn1 [Example I-83] | 1.1% | –
4 | Cc1ncc(C(=O)Nc2cc(Br)c(C)c(C(F)(F)F)c2)cc1-n1cc(-c2cnn(C)c2C)nn1 [Example I-56] | 1.4% | –
5 | Cc1cn2c(-c3cn(-c4cc(C(=O)Nc5cc(N6CCN(C)CC6)c(C)c(C(F)(F)F)c5)cnc4C)nn3)cnc2cn1 [Example I-44] | 3.3% | –
6 | CCN(CC)c1cc(NC(=O)c2cnc(C)c(-n3cc(-c4cnn(C)c4C)nn3)c2)cc(C(F)(F)F)c1 [Example I-73] | 1.7% | –
7 | Cc1ncc(C(=O)Nc2cc(C(C)(C)C)on2)cc1-n1cc(-c2cncc(N3CCNCC3)c2)nn1 [Example I-183] | 1.8% | –
8 | CCN1CCN(c2cc(NC(=O)c3cnc(C)c(-n4cc(-c5cccnc5)nn4)c3)cc(C(F)(F)F)c2C)CC1 [Example I-46] | 6.1% | –
9 | Cc1ncc(C(=O)Nc2cc(N3CCN(C)CC3)c(C)c(C(F)(F)F)c2)cc1-n1cc(-c2cncnc2)nn1 [Example I-67] | 2.9% | –
10 | Cc1ncc(C(=O)Nc2cc(N3CCOCC3)c(C)c(C(F)(F)F)c2)cc1-n1cc(-c2cnn(C)c2C)nn1 [Example I-61] | 8.1% | –
11 | Cc1ncc(NC(=O)c2cccc(C(C)(C)C#N)c2)cc1-n1cc(-c2cncc(NCCN(C)C)c2)nn1 [XII-52] | 7% | –
12 | Cc1ncc(C(=O)Nc2cc(C(C)(C)C)on2)cc1-n1cc(-c2cncc(CN3CCOCC3)c2)nn1 [Example I-184] | 2.5% | –
13 | Cc1ncc(C(=O)Nc2cc(C(C)(C)C)on2)cc1-n1cc(-c2cccnc2)nn1 [Example I-80] | 1.9% | –
14 | Cc1ncc(C(=O)Nc2cc(C(C)(C)C)on2)cc1-n1cc(-c2cnn(C)c2C)nn1 [Example I-1] | 7.6% | –
15 | Cc1ncc(C(=O)Nc2cc(NCCN(C)C)cc(C(F)(F)F)c2)cc1-n1cc(-c2cnn(C)c2C)nn1 [Example I-78] | 2.8% | –
16 | Cc1ncc(C(=O)Nc2cc(C(F)(F)F)cc(N3CCN(C)CC3)c2C)cc1-n1cc(-c2cnn(C)c2C)nn1 [Example I-101] | – | 1.3%
17 | CCN1CCN(c2cncc(-c3cn(-c4cc(NC(=O)c5cc(C(F)(F)F)ccn5)cnc4C)nn3)c2)CC1 [XII-38] | 2.1% | –
18 | COc1cncc(-c2cn(-c3cc(C(=O)Nc4cc(OC(F)(F)F)cc(N5CCN(C)CC5)c4)cnc3C)nn2)c1 [Example I-85] | 1.1% | –
19 | Cc1ncc(C(=O)Nc2cc(N(C)CCN(C)C)cc(C(F)(F)F)c2)cc1-n1cc(-c2cnn(C)c2C)nn1 [Example I-60] | 7.2% | –
20 | Cc1ncc(C(=O)Nc2cc(C(C)(C)C)on2)cc1-n1cc(-c2cncc(CN3CC[C@H](F)C3)c2)nn1 [Example I-193] | 3.6% | –
21 | Cc1ncc(C(=O)Nc2cc(C(C)(C)C)on2)cc1-n1cc(-c2cncc(N3CC[C@H](N(C)C)C3)c2)nn1 [Example I-145] | 2.2% | –
22 | Cc1ncc(C(=O)Nc2cc(CO)c(Cl)c(C(F)(F)F)c2)cc1-n1cc(-c2cnn(C)c2C)nn1 [Example I-115] | 1.9% | –
23 | COCCN(C)Cc1cc(C(F)(F)F)cc(NC(=O)c2cnc(C)c(-n3cc(-c4cnn(C)c4C)nn3)c2)c1OC [Example I-112] | 2% | –
24 | CCN1CCN(Cc2cncc(-c3cn(-c4cc(C(=O)Nc5cc(C(C)(C)C)on5)cnc4C)nn3)c2)CC1 [Example I-188] | 1.5% | –

Row | SMILES | remaining activity at 2 µM | remaining activity at 1.43 µM
25 | COc1cncc(-c2cn(-c3cc(C(=O)Nc4cc(C(C)(C)C)n[nH]4)cnc3C)nn2)c1 [Example I-84] | 2.4% | –
26 | COc1ccc(NC(=O)c2cnc(C)c(-n3cc(-c4cncnc4)nn3)c2)cc1C(F)(F)F [Example I-64] | 6.6% | –
27 | Cc1ncc(C(=O)Nc2cc(C(C)(C)C)nn2C)cc1-n1cc(-c2cnn(C)c2C)nn1 [Example I-4] | 1.7% | –
28 | CCN1CCN(c2cc(NC(=O)c3cnc(C)c(-n4cc(-c5cnn(C)c5C)nn4)c3)cc(C(F)(F)F)c2)CC1 [Example I-59] | 13.4% | –
29 | Cc1ncc(NC(=O)c2cccc(C(C)(C)C#N)c2)cc1-n1cc(-c2cncc(CN3CCCC3)c2)nn1 [XII-65] | 0.9% | –
30 | Cc1ncc(C(=O)Nc2cc(C(C)(C)C)on2)cc1-n1cc(-c2cncc(N3CCOCC3)c2)nn1 [Example I-35] | 1.7% | –
31 | COc1c(CNCC(C)C)cc(NC(=O)c2cnc(C)c(-n3cc(-c4cnn(C)c4C)nn3)c2)cc1C(F)(F)F [Example I-95] | 3.1% | –
32 | Cc1ncc(C(=O)Nc2cc(C(C)(C)C)on2)cc1-n1cc(-c2cncc(N3CCN(CCOC(C)C)CC3)c2)nn1 [Example I-197] | 1% | –
33 | Cc1ncc(C(=O)Nc2cc(C(C)(C)C)on2)cc1-n1cc(-c2cncc(N3CCN(CC4CC4)CC3)c2)nn1 [Example I-137] | 2.5% | –
34 | Cc1ncc(C(=O)Nc2cc(N3CC[C@H](N(C)C)C3)cc(C(F)(F)F)c2)cc1-n1cc(-c2cnn(C)c2C)nn1 [Example I-77] | 1.9% | –
35 | COCCCN1CCN(c2cncc(-c3cn(-c4cc(NC(=O)c5ccc(OC)c(C(F)(F)F)c5)cnc4C)nn3)c2)CC1 [XII-46] | 1.8% | –
36 | CCN1CCN(c2cc(NC(=O)c3cnc(C)c(-n4cc(-c5cncc(C#N)c5)nn4)c3)cc(C(F)(F)F)c2C)CC1 [Example I-49] | 6.2% | –
37 | Cc1ncc(C(=O)Nc2cc(C(F)(F)F)cc(N3CCCC3)c2C)cc1-n1cc(-c2cnn(C)c2C)nn1 [Example I-121] | – | 2.3%
38 | Cc1ncc(NC(=O)c2cc(OC(F)(F)F)cc(N3CCOCC3)c2)cc1-n1cc(-c2cnn(C)c2C)nn1 [XII-25] | 3.9% | –
39 | Cc1ncc(NC(=O)c2cccc(C(C)(C)C#N)c2)cc1-n1cc(-c2cncc(N3CCN(CC4CC4)CC3)c2)nn1 [XII-49] | 2.3% | –
40 | Cc1ncc(C(=O)Nc2cc(N3CC[C@@H](N(C)C)C3)cc(C(F)(F)F)c2)cc1-n1cc(-c2cnn(C)c2C)nn1 [Example I-76] | – | 2%
41 | COc1cncc(-c2cn(-c3cc(C(=O)Nc4cc(C(C)(C)C)on4)cnc3C)nn2)c1 [Example I-27] | 3.3% | –
42 | Cc1ncc(C(=O)Nc2cc(C(C)(C)C)on2)cc1-n1cc(-c2cncc(N3CCN(C)CC3)c2)nn1 [Example I-39] | 1.5% | –
43 | Cc1ncc(NC(=O)c2cccc(C(C)(C)C#N)c2)cc1-n1cc(-c2cncnc2)nn1 [XII-10] | 2.5% | –
44 | Cc1ncc(C(=O)Nc2cc(C(C)(C)C)on2)cc1-n1cc(-c2cncc(CN(C)C)c2)nn1 [Example I-187] | 4.1% | –
45 | COCCN1CCCN(c2cncc(-c3cn(-c4cc(C(=O)Nc5cc(C(C)(C)C)on5)cnc4C)nn3)c2)CC1 [Example I-201] | 1.6% | –
46 | COc1cncc(-c2cn(-c3cc(NC(=O)c4cc(OC(F)(F)F)cc(N5CCN(C)CC5)c4)cnc3C)nn2)c1 [XII-16] | 0.7% | –
47 | Cc1ncc(C(=O)Nc2cc(N3CCN(C)CC3)c(F)c(C(F)(F)F)c2)cc1-n1cc(-c2cnn(C)c2C)nn1 [Example I-10] | 1.1% | –
